In article PMC10418701, “Pharmacological Screening of Kv7.1 and Kv7.1/KCNE1 Activators as Potential Antiarrhythmic Drugs in the Zebrafish Heart” (International Journal of Molecular Sciences, 2023):

What was measured:
[1] = molecular target: T1, zebrafish Kv7.1 (KCNQ1) (Danio rerio, UniProt B0R0K2); assay: two-electrode voltage clamp, zebrafish Kv7.[…] expressed in Xenopus laevis oocytes; type: cell-based
T1 construct: gene kcnq1.1
T1 sequence (B0R0K2 1-655): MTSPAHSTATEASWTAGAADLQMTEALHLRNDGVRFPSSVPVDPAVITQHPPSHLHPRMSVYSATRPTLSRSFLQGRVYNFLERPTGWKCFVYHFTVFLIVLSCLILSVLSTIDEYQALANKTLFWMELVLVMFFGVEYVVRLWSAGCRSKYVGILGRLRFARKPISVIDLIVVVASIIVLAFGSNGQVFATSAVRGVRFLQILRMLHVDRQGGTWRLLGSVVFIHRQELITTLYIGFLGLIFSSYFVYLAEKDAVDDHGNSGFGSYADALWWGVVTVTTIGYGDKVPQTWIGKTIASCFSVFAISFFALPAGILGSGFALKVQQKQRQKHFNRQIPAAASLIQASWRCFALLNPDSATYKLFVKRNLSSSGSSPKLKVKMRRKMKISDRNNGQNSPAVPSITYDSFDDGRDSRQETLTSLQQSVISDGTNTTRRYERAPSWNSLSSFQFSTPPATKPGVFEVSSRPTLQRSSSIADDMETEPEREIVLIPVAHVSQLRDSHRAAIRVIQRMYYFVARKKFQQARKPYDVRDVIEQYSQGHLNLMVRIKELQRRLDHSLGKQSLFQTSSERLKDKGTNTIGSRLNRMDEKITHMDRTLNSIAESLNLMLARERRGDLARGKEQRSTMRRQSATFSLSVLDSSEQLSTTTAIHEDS

[2] = molecular target: T1, zebrafish Kv7.1 (KCNQ1); assay: cell-based; type: cell-based

In the case of `CCS(=O)(=O)N(C)[C@H]1c2cc(C#N)ccc2OC(C)(C)[C@@H]1O` (racemic) [chromanol 293B], the inhibition at 10 µM [1] is reported as 76%.

With `CC/C=C\C/C=C\C/C=C\C/C=C\C/C=C\C/C=C\CCC(=O)NCC(=O)O` [DHA-Gly] the “two-electrode voltage clamp, zebrafish Kv7.1 expressed in Xenopus laevis oocytes” value [2] was 12.2 mV left shift of V0.5 at 20 µM.

In the case of `COc1ccc(-c2csc(NC(=O)[C@H]3CCCCN3S(=O)(=O)c3ccc(C)cc3)n2)cc1` [ML-277], the fold induction at 1 µM ([2]; read-out: two-electrode voltage clamp, zebrafish Kv7.1 expressed in Xenopus laevis oocytes) is reported as > 8.
